Patent US20260356849A1, “COMPOUNDS AND METHODS FOR TREATING CANCERS” (CEDARS-SINAI MEDICAL CENTER, priority 2022, published 2026)
Entries after “also recorded” stand apart in the source; their conditions may differ.

Assays:
Cyclin D1 = Cyclin D1 protein level in cancer cells; type: cell-based; conditions: 10 μM, 24 hours
HepG2 cells [1] = test: Cell cycle flow cytometry HepG2; type: cell-based; conditions: 1-5 μM, 24 hours
GIT1 = GIT1 dependence of cyclin B1 and EdU effects; type: cell-based
GIT1-GFP = GIT1-GFP (Homo sapiens, UniProt Q9Y2X7); test: MST binding to GIT1-GFP
RKO cells [2] = test: Annexin V-FITC/propidium iodide assay RKO; type: cell-based, human; conditions: 5 μM, 24-48 hours
Procedure: (§1) FIG. 8 depicts, in accordance with various embodiments of the invention, results of an annexin V-FITC/propidium iodide binding assay performed in human and mouse hepatocytes, AML12, HEK293, HepG2, and RKO cells after treatment with 5 μM of a GIT1 inhibitor or DMSO for 24-48 hours (results are shown as mean±SE from at least 3 experiments. *p<0.05 vs. DMSO).
(§2) An annexin V-FITC/propidium iodide (PI) binding assay was performed with flow cytometry. […] Both G2/M arrest and cell death are mechanisms by which compound C3 inhibits cancer cells' growth.

MC38 cells = test: MC38 CRC liver metastasis (CRLM) model in immune competent mice; type: in vivo
Procedure: FIG. 40A-FIG. 40E depicts, in accordance with various embodiments of the invention, compound C3 inhibits CRC liver metastasis in immune competent mice. MC38 cells (2.5×10^5) stably expressing luciferase where injected intrasplenically followed by splenectomy. 7 days later compound C3 (20 mg/kg on day 1 sinc MC38 grows rapidly, then 15 mg/kg daily×3 days, rest for 2 days, then 15 mg/kg×2 days) or DMSO were given ip. Small animal imaging (FIG. 40A). H&E of tumors (FIG. 40B). Luciferase intensity at various time points (FIG. 40C). Gross pictures of the livers at day 9 (FIG. 40D), ALT and AST levels after above, or compound C3 (15 mg/kg/d for 21 days), *p<0.05 vs. DMSO (FIG. 40E).
Compound C3 powder was dissolved in pure DMSO at 50 mg/ml, as a stock store in-80 °C. Stock solution was dissolved in 200 μl 0.9% saline to reach 15 mg/kg. For control group, DMSO was dissolved in 200 μl saline to achieve a concentration of DMSO in saline of 4.5%. MC38 cells (2.5×105) stably expressing luciferase were injected intrasplenically followed by splenectomy (CRLM model). Seven days later, Compound C3 (20 mg/kg on day 1, then 15 mg/kg daily ×3 days, rest for 2 days, then 15 mg/kg×2 days) or DMSO were administered ip.

MEK and ERK activity [3] = test: MEK and ERK activity in human hepatocytes; type: cell-based; conditions: 10 μM
Procedure: Treatment of human hepatocytes with 10 μM compound C3 had no effect on MEK or ERK activity.

MEK and ERK activity [4] = test: Western blot ERK and MEK activity in MC38 cells; type: cell-based; conditions: 10 μM, 24 hours
RKO cells [5] = test: Migration assay RKO; type: cell-based, human; conditions: 1 μM, 24 hours
HepG2 cells [6] = test: Clonogenic assay HepG2; type: cell-based; conditions: 1 μM, 24 hours then drug free medium 10-20 days; dose dependent
Procedure: (§3) RKO, HepG2, and AML12 cells were treated with 1-10 μM compound C3 for 24 hours and maintained in drug free medium for 10-20 days.

AML12 cells [7] = test: Annexin V-FITC/propidium iodide assay AML12; type: cell-based; conditions: 5 μM, 24-48 hours
Procedure: as §1, §2

AML12 cells [8] = test: Clonogenic assay AML12; type: cell-based; conditions: 1-10 μM, 24 hours then drug free medium 10-20 days
Procedure: as §3

[9] = molecular target: GIT1-cyclin B1 interaction (Homo sapiens, UniProt Q9Y2X7); test: Co-IP GIT1-cyclin B1 interaction in HepG2; type: cell-based; conditions: HepG2, 10 μM, 24 h
Procedure: HepG2 cells were treated with compound C3 at 10 μM for 24 h and subjected to co-IP with anti-GIT1 or anti-cyclin B1 and blotted for cyclin B1 and GIT1, ratios of cyclin B1 bound to GIT1 vs. DMSO control are shown, *p<0.05 vs. DMSO from n=3 (FIG. 38B).
In vitro translated GIT1, recombinant MAT2B, and cyclin B1 (both 0.5 μg) were used to evaluate their direct binding, as shown in the blots of FIG. 18A. Also shown, is the results of (FIG. 18B) treating HepG2 cells with a GIT1 inhibitor at 10 μM for 24 hours and subjected to co-IP with anti-GIT1 or cyclin B1 antibody and immunoblotted for cyclin BI and GIT1. In vitro translated GIT1, recombinant MAT2B, and cyclin B1 (both 0.5 μg) were used to evaluate their direct binding. The ratio of cyclin BI bound to GIT1 was compared to DMSO control.

HEK293 cells = test: Annexin V-FITC/propidium iodide assay HEK293; type: cell-based; conditions: 5 μM, 24-48 hours
Procedure: as §1, §2

MEK and ERK activity [10] = test: Western blot ERK and MEK activity in RKO cells; type: cell-based, human; conditions: 2-10 μM, 24 hours
M2 macrophages (CD206+) = test: Flow cytometry of macrophages in CRLM tumors; type: in vivo, mice
Source text: Liver tumors from CRLM model in syngeneic mice were processed for flow cytometry. […] In this subgroup, CD206+ was used to identify M2 macrophages.

GIT2-GFP = GIT2-GFP (Homo sapiens, UniProt Q14161); test: MST binding to GIT2-GFP
RKO cells [11] = test: Clonogenic assay RKO; type: cell-based, human; conditions: 1 μM, 24 hours then drug free medium 10-20 days; dose dependent
Procedure: as §3

CyclinB1 = test: Cyclin B1 expression by RT-PCR, Western blotting and CHX in HepG2; type: cell-based
Procedure: HepG2 cells were treated with DMSO or compound C3 (2-5 μM) for 24 hours. […] Numbers shown below are mean±SE densitometric values.

Toxicity in C57/BL6 mice = conditions: mouse, in vivo

GIT1-GFP, sequence (Q9Y2X7 1-770 isoform Q9Y2X7-3): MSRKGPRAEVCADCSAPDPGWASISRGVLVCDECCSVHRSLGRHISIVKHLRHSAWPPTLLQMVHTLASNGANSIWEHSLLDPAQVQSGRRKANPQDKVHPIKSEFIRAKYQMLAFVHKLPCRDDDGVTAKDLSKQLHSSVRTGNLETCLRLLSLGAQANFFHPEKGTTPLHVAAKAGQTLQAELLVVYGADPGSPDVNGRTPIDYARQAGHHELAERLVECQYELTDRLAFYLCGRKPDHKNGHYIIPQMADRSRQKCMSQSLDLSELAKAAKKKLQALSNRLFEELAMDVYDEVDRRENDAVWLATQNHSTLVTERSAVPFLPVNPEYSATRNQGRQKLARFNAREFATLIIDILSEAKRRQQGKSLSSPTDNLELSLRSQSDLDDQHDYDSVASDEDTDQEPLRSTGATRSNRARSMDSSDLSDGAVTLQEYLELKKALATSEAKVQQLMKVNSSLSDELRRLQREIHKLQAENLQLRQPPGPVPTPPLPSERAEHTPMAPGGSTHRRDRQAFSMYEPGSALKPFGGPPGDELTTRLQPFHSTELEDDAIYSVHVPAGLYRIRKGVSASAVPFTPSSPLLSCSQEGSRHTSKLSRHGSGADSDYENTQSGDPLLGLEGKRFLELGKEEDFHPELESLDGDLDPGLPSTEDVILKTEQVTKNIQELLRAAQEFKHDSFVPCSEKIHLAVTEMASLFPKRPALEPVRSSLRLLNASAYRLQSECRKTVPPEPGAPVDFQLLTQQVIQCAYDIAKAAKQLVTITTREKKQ
GIT1-cyclin B1 interaction, sequence (Q9Y2X7 whole entry): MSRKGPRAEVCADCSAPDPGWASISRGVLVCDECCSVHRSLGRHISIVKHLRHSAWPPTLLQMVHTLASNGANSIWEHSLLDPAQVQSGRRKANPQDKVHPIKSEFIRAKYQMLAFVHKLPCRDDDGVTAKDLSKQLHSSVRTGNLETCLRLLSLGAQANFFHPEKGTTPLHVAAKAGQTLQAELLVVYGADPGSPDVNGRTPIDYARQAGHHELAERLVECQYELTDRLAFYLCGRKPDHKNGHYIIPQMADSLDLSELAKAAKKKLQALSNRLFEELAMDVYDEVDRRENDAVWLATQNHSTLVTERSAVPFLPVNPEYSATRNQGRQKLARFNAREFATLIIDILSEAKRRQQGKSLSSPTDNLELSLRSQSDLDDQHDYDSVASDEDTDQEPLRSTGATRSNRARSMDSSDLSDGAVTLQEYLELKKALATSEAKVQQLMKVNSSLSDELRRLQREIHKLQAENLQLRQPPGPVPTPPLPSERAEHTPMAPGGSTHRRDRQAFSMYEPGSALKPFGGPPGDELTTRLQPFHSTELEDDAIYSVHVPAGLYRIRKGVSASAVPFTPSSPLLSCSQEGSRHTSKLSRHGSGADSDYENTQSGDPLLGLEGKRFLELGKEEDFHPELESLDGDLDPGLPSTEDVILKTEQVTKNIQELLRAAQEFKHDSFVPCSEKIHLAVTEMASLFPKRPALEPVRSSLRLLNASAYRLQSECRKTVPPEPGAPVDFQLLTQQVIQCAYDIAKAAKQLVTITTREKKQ
GIT2-GFP, sequence (Q14161 whole entry): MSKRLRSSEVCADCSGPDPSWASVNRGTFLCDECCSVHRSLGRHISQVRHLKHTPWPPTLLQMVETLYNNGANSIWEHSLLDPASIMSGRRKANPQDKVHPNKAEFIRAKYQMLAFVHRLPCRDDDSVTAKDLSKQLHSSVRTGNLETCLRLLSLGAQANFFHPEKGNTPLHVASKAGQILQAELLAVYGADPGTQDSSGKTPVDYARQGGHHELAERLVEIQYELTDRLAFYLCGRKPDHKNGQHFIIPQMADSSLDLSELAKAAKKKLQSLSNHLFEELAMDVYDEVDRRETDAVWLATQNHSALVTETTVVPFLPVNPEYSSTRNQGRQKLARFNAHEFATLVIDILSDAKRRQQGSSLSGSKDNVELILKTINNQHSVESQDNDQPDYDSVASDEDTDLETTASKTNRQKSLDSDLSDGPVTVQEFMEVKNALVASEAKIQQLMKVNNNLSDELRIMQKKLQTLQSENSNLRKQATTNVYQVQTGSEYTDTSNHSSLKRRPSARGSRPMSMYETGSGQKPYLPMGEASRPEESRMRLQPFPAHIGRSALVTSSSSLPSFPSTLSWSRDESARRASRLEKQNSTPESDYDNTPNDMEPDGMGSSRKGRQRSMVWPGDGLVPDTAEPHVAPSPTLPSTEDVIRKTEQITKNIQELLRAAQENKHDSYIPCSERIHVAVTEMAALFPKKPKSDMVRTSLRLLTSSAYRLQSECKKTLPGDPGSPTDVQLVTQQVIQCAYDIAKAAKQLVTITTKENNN

CC1(C)Cc2nc3sc4c(=O)n(CC(=O)NCc5ccco5)cnc4c3cc2CO1 [Compound C3, 2-(8,8-Dimethyl-4-oxo-7,10-dihydro-8H-pyrano[3″,4″: 5′,6′]pyrido[3′,2′: 4,5]thieno[3,2-d]pyrimidin-3 (4H)-yl)-N-(2-furylmethyl) acetamide]
Cyclin D1 protein level, cancer cells (Cyclin D1): lower in cancer cells | G2/M phase, HepG2 (HepG2 cells [1]): G2/M phase was significantly increased | percentage of cells in G1 phase, HepG2 (HepG2 cells [1]): lowered the percentage of cells in G1 phase | GIT1 dependence of lower EdU (growth) (GIT1): lower EdU requires GIT1 | GIT1 dependence of increase in cyclin B1 level / stabilization (GIT1; n=3): GIT1 dependent; also recorded: increase in cyclin BI level requires GIT1 | Kd (GIT1-GFP): 6.2 µM | binding to GIT1-GFP (GIT1-GFP): binds to GIT1-GFP | apoptosis, RKO (RKO cells [2]): significant apoptosis | tumor growth, liver metastasis (MC38 cells; ip 20 mg/kg day 1, 15 mg/kg daily ×3 days, rest 2 days, 15 mg/kg×2 days): Tumor growth was inhibited | toxicity (MC38 cells; ip 20 mg/kg day 1, then 15 mg/kg, ALT and AST): without toxicity | MEK or ERK activity, human hepatocytes (MEK and ERK activity [3]): no effect | ERK and MEK activities, MC38 (MEK and ERK activity [4]): lower | migration of RKO cells (RKO cells [5]): significant inhibition in migration | clonogenic potential, HepG2 (HepG2 cells [6]): inhibited the clonogenic potential | cell death, AML12 (AML12 cells [7]): does not induce cell death | clonogenic potential, AML12 (AML12 cells [8]): no effect on clonogenic potential | GIT1-cyclin B1 interaction [9]: promotes their interaction; also recorded: enhances GIT1-cyclin BI interaction | cell death, HEK293 (HEK293 cells): does not induce cell death | ERK and MEK activities, RKO (MEK and ERK activity [10]): lower | M2 macrophages in the tumors (M2 macrophages (CD206+); CD206+, n=6 each group): dramatically reduced M2 macrophages | M1 and CD8+ T cells in the tumors (M2 macrophages (CD206+); strong indication): raised MI and CD8+ T cells | binding to GIT2-GFP (GIT2-GFP): not GIT2-GFP | clonogenic potential, RKO (RKO cells [11]): inhibited the clonogenic potential | CyclinB1 content (CyclinB1): increases CyclinB1 content; also recorded: led to cyclin B1 accumulation | CyclinB1 mRNA level (CyclinB1; HepG2, 2-5 μM, 24 hours): increases CyclinB1 mRNA level | CyclinB1 protein degradation (CyclinB1; HepG2, cycloheximide, 5 μM): inhibits its protein degradation | CyclinB1 phosphorylation (CyclinB1; associated with nuclear accumulation): promotes CyclinB1 phosphorylation | toxicity in C57/BL6 mice (Toxicity in C57/BL6 mice): no toxicity
